The record followed here is PubChem BioAssay AID1645848.

≈ marks a conversion by molar mass, not a printed value.

For this series the following is noted: buffer; pH 7.4; 6.0 h; 150.0 µM.
`CC(=O)c1c(C)[nH]c(C(=O)Nc2cccc(S(=O)(=O)Nc3ccc(Br)cc3)c2)c1C`: the kinetic solubility (as a rule, solubility judged after dilution from a stock solution rather than from solid) is under 1 µg/mL.

`CCN(CC)S(=O)(=O)c1ccc(N2CCCC2)c(NS(=O)(=O)c2ccc(C)cc2)c1` gave a solubility (kinetic) of 4.02 µg/mL (≈ 8.91 µM).

`CC(C)CNc1ccnc(NCc2csc(-c3ccccc3)n2)n1` registered a solubility (kinetic) of 35.9 µg/mL (≈ 106 µM).

In turn, `Oc1ccc(NCc2ccccc2OCc2ccccc2Cl)cc1` registered a kinetic solubility of 3.28 µg/mL (≈ 9.65 µM).

Compound `Cn1cc(C2=C(c3cn(CCCSC(=N)N)c4ccccc34)C(=O)NC2=O)c2ccccc21` gave a solubility (kinetic) of 19.2 µg/mL (≈ 41.9 µM).

`COc1ccc(Nc2nc(-c3cccc(OC)c3)no2)cc1`: the solubility (kinetic) was under 1 µg/mL.

As to `Cc1cnc(-c2ccccc2C2COC2)nc1NCC1CCN(c2cccnc2)CC1`, the solubility (kinetic) was over 61 µg/mL.

`CN1C(=O)c2ccccc2[S@](=O)c2ccc(C(=O)NCCc3cccs3)cc21` gave a kinetic solubility of 45.9 µg/mL (≈ 112 µM).

`c1ccc(C2=Nn3c(nnc3-c3ccncc3)SC2)cc1` returned a solubility (kinetic) of 8.9 µg/mL (≈ 30.3 µM).

Consider `O=C(Nc1ccc(S(=O)(=O)Nc2nccs2)cc1)c1ccc(-c2ccccc2)cc1`, for which the solubility (kinetic) was under 1 µg/mL.

`Cc1ccc(-n2nc3c(=O)n(CCCC(=O)NCc4ccccc4F)nc(C)c3c2C)cc1` yielded a solubility (kinetic) of 4.17 µg/mL (≈ 9.32 µM).

Compound `COc1cc2c(C(=O)N3CCN(c4cccc(C(F)(F)F)c4)CC3)cn(CC(C)C)c(=O)c2cc1OC` came in with a solubility (kinetic) of 4.92 µg/mL (≈ 9.5 µM).

On to `CCOC(=O)c1ccc(N2C(=O)c3n[nH]c(-c4cccs4)c3C2c2ccc(Cl)cc2Cl)cc1` (stereo unspecified), for which the kinetic solubility was under 1 µg/mL.

On to `CC1=C(C(=O)Nc2nncs2)C(c2ccccc2Br)N=C(Nc2nc3ccccc3o2)N1` (stereo unspecified), for which the solubility (kinetic) was under 1 µg/mL.

`C[C@H]1CN(C(=O)c2nn(C)c3ccccc23)C[C@@H]1c1nc(-c2ccncc2)no1` yielded a kinetic solubility of 34.9 µg/mL (≈ 89.8 µM).

In turn, `COc1ccc2c(c1)CCc1c-2n[nH]c1C(=O)N1CCc2c(nc3cc(-c4ccccc4)[nH]n3c2=O)C1` came in with a kinetic solubility of under 1 µg/mL.

On to `O=c1cc(/C=C/c2c(F)cccc2Cl)[nH]c2ccccc12`, for which the kinetic solubility was 1.73 µg/mL (≈ 5.77 µM).

Consider `COc1cccc(CNc2ccc(S(=O)(=O)Nc3ccccn3)cc2)c1O`, for which the kinetic solubility worked out at 8.36 µg/mL (≈ 21.7 µM).

For `COc1ncc(-c2n[nH]c3c2CC(=O)N(c2ccccc2)C3)cn1`, the kinetic solubility was determined as 5.46 µg/mL (≈ 17 µM).

For `Cc1ccc(S(=O)(=O)n2cc(C(=O)Nc3nc(-c4ccccc4)cs3)c3ccccc32)cc1`, the kinetic solubility came to 2.2 µg/mL (≈ 4.65 µM). This solubility kinetic lies about 2.5-fold lower than the previous one.

On to `O=c1[nH]c(N2CCOCC2)nc2c1CCN(Cc1ccc(Cl)cc1F)CC2`, for which the kinetic solubility was over 58 µg/mL.

In turn, `COC(=O)C1=C(C)NC(C)=C(C(=O)O[C@@H]2CCCN(Cc3ccccc3)C2)[C@@H]1c1cccc([N+](=O)[O-])c1` showed a kinetic solubility of under 1 µg/mL.

As for `Cc1onc(-c2ccc(F)cc2)c1COc1ccc(C(=O)N2CCS(=O)(=O)CC2)cn1`, the kinetic solubility is over 66 µg/mL.

On to `CNc1sc(-c2cccc3ccccc23)nc1C#N`, for which the kinetic solubility is under 1 µg/mL.

In turn, `O=C1NCc2ccc(-c3cc4c(ccn4Cc4cccnc4)c(C4=CCOCC4)n3)cc21` yielded a solubility (kinetic) of 54 µg/mL (≈ 128 µM).

As for `Cc1ccc(S(=O)(=O)Nc2ccc(C(=O)Nc3ncc(-c4ccccc4)s3)cc2)cc1`, the kinetic solubility is under 1 µg/mL.

In turn, `Cc1ccc(S(=O)(=O)c2cnc(SC(C)C(=O)Nc3ccccc3)[nH]c2=O)cc1` (stereo unspecified) gave a solubility (kinetic) of over 63 µg/mL.

In turn, `O=C(N/N=C/c1ccc(Sc2ccccn2)o1)c1ccncc1` yielded a kinetic solubility of over 48 µg/mL.

The compound `O=C(Nc1cncc(Cc2ccccc2)c1)c1ccc(-c2cccc([N+](=O)[O-])c2)o1` came in with a kinetic solubility of under 1 µg/mL.

Turning to `CCOc1ccc(C(C)CNC(=O)c2cc3sccc3n2Cc2ccccc2)cc1OCC` (stereo unspecified), the solubility (kinetic) is under 1 µg/mL.

For `Cc1ccc(-c2cc(C(=O)Nc3ccc(S(=O)(=O)N(C)Cc4nccs4)cc3)c3ccccc3n2)cc1C`, the kinetic solubility is 3.73 µg/mL (≈ 6.88 µM).

With `NC(=O)C1CCN(c2ncc(-c3ccc(Br)cc3)s2)CC1`, the solubility (kinetic) was found to be 1.62 µg/mL (≈ 4.42 µM).

Compound `O=S(=O)(Nc1ccc2ccccc2c1)c1ccc(NCc2ccc(Br)cc2O)cc1` came in with a kinetic solubility of under 1 µg/mL.

`O=C(c1ccc2c(c1)OCO2)N1CCC(Cc2nc(-c3cnccn3)no2)CC1` yielded a kinetic solubility of over 39 µg/mL.

Consider `Fc1cccc(-c2ccc(Nc3nc(-c4ccncc4)nc4ccccc34)cc2F)c1`, for which the solubility (kinetic) was under 1 µg/mL.

In turn, `CN(C)CCCN1c2ccc(O)cc2Sc2ccc(Cl)cc21` yielded a kinetic solubility of over 49 µg/mL.

For the compound `Cc1ccc(S(=O)(=O)Nc2cnccc2C(=O)Nc2ccc(N3CCOCC3)cc2)cc1`, the solubility (kinetic) is over 67 µg/mL.

In the case of `CCCOC(c1cc2nccc(C(=O)O)c2[nH]1)c1ccccc1Cl` (stereo unspecified), the solubility (kinetic) was over 51 µg/mL.

In the case of `CCC(CC)c1cc([C@H]2CN3CC[C@H]2C[C@@H]3CNC(=O)Cc2cccs2)nc(-c2ccncc2)n1`, the solubility (kinetic) was over 72 µg/mL.

Consider `COc1cc([C@@H](CC(=O)O)c2ccc(C)c(CN3C[C@@H](C)Oc4ccccc4S3(=O)=O)c2)cc2nnn(C)c12`, for which the solubility (kinetic) was over 81 µg/mL.

On to `Cc1noc(/C=C/c2ccccc2F)c1S(=O)(=O)N1CCC(C(=O)Nc2ccc(C#N)cc2)CC1`, for which the solubility (kinetic) was under 1 µg/mL.

On to `Cc1csc2nc(-c3cccc(NC(=O)c4cccc(F)c4)c3)cn12`, for which the solubility (kinetic) is under 1 µg/mL.

`CCCCOc1ccc(C2c3c(oc4ccc(C)cc4c3=O)C(=O)N2CCCN(C)C)cc1OCC` (stereo unspecified): the solubility (kinetic) stood at 58.5 µg/mL (≈ 119 µM).

For the compound `CN1Cc2c(cc(N3CCOCC3)nc2-c2ccccc2OC(F)(F)F)C1=O`, the kinetic solubility came to 12.1 µg/mL (≈ 30.8 µM).

`Clc1ccc2ncc(-c3cccc(NC4CCNCC4)n3)n2c1` yielded a solubility (kinetic) of over 48 µg/mL.

On to `Cc1ccnc(NC(=S)N2CCN(c3cccc(C(F)(F)F)c3)CC2)c1`, for which the kinetic solubility was 9.68 µg/mL (≈ 25.4 µM).

For the compound `COc1ccc2c3c([nH]c2c1)C1CC2C(CC(O)C(OC)C2CO)CN1CC3` (stereo unspecified), the kinetic solubility is over 57 µg/mL.

In turn, `O=C(NC1CC1)c1nc(-c2cccnc2)c2cnccn12` had a kinetic solubility of 31.6 µg/mL (≈ 113 µM).

`Cc1nc(NC(=O)C2CC(=O)N(c3n[nH]c4cc(Br)ccc34)C2)sc1C` (stereo unspecified) came in with a kinetic solubility of under 1 µg/mL.

Compound `CCN1C(=O)c2ccccc2S(=O)c2ccc(NC(=O)Cc3ccc(OC)cc3)cc21` (stereo unspecified) returned a kinetic solubility of 6.41 µg/mL (≈ 14.7 µM).

For the compound `COc1cccc(CNc2ccc(S(=O)(=O)Nc3ccc(C)nc3)cc2)c1O`, the kinetic solubility came out at 16.5 µg/mL (≈ 41.2 µM).

`CCc1ccc(NC(=O)[C@H](Cc2c[nH]c3ccccc23)NC(=O)[C@@H]2Cc3ccccc3CN2)cc1` returned a kinetic solubility of 3.49 µg/mL (≈ 7.48 µM).

In turn, `Fc1cc(Nc2nc(-c3ccncc3)nc3ccccc23)ccc1-n1cncn1` yielded a solubility (kinetic) of under 1 µg/mL.

Compound `COc1cccc(-c2cn3c(n2)sc2cc(C(=O)NCCc4ccc(OC)c(OC)c4)ccc23)c1` had a kinetic solubility of under 1 µg/mL.

Take `Fc1ccccc1-c1nc(NCc2ccc(-c3cccnc3)cc2)c2ccccc2n1`: the kinetic solubility was under 1 µg/mL.

`COc1ccc2[nH]c(C[C@@H]3C[C@@H](C(C)C)[C@H](CNCc4ccccc4O)C=C3C)nc2n1` returned a kinetic solubility of 42.1 µg/mL (≈ 96.9 µM).

For the compound `NC(=O)c1sc2nc3c(c(-c4cccs4)c2c1N)CCCC3`, the kinetic solubility turned out to be 0.293 µg/mL (≈ 0.889 µM).

For the compound `CCN1CCN(C(=O)c2cc(-c3ccc(F)cc3)c3nncn3n2)CC1`, the kinetic solubility was over 52 µg/mL.

For the compound `CCCCn1cc2c(c1-c1ccc(Br)cc1)c(=O)n(C)c(=O)n2C`, the solubility (kinetic) is under 1 µg/mL.

On to `CCN(c1ccccc1)S(=O)(=O)c1cc(C(=O)Nc2ccc(Br)cc2)ccc1F`, for which the solubility (kinetic) was under 1 µg/mL.

`Cc1sc(NC(=O)Cc2ccc3c(c2)OCO3)nc1-c1ccc2c(c1)CCN2C` had a kinetic solubility of 1.07 µg/mL (≈ 2.63 µM).

In turn, `O=C(c1ccc2c(c1)ncn2-c1cccc(C(F)(F)F)c1)N1CCCCC1` displayed a solubility (kinetic) of over 55 µg/mL.

`O=C(Nc1ncc(Cc2ccc(C(F)(F)F)cc2)s1)c1ccco1` yielded a solubility (kinetic) of under 1 µg/mL.

With `Cc1cccc(-n2ccc(=O)c(C(=O)Nc3ccc(S(=O)(=O)Nc4nccs4)cc3)n2)c1`, the solubility (kinetic) was under 1 µg/mL.

Regarding `O=C(c1cnc(N2CCCCC2)c2ccccc12)N1CCN(c2ccc(Cl)cc2)CC1`, the kinetic solubility was under 1 µg/mL.

Take `CCn1c(C(=O)N2CCCC(C(=O)NCCc3ccc(C)cc3)C2)cc2sccc21` (stereo unspecified): the solubility (kinetic) was 17.1 µg/mL (≈ 40.3 µM).

Consider `O=C(Nc1nc(-c2ccccc2)cs1)c1ccncc1NS(=O)(=O)c1ccc2c(c1)CCC2`, for which the solubility (kinetic) was found to be 5.8 µg/mL (≈ 12.2 µM).

As for `O=c1c2ccccc2nc2n1CCC2`, the solubility (kinetic) is over 27 µg/mL.

`O=C(COc1ccccc1)NCC(c1cccs1)S(=O)(=O)c1ccc(Cl)cc1` (stereo unspecified) showed a solubility (kinetic) of 3.83 µg/mL (≈ 8.79 µM).

In the case of `O=C(Nc1cccc(C(F)(F)F)c1)Nc1cc(S(=O)(=O)NC2CC2)ccc1-c1ccsc1`, the kinetic solubility is under 1 µg/mL.

`CCN(CCN(C)C)C(=O)C1CCN(S(=O)(=O)c2c(C)noc2/C=C/c2ccccc2F)CC1`: the solubility (kinetic) was over 49 µg/mL.

On to `Cc1noc(C)c1C(=O)N1CCC2(CC1)CCN(C(c1ccccc1)c1ccccc1)CC2`, for which the solubility (kinetic) was found to be 22 µg/mL (≈ 49.5 µM).

In the case of `CCOC(=O)c1ccc(NC(=O)N2Cc3[nH]cnc3C[C@H]2c2nc(C(C)C)no2)cc1`, the kinetic solubility is over 63 µg/mL.

As for `NC(=O)Nc1cc(-c2ccc(CN3CCOCC3)cc2)sc1C(N)=O`, the kinetic solubility was 14.3 µg/mL (≈ 39.6 µM).

On to `CC1(C)CNc2cc(NC(=O)c3cccnc3NCc3ccncc3)ccc21`, for which the solubility (kinetic) worked out at 41.8 µg/mL (≈ 112 µM).

The compound `CCOc1ccc(/C=C/c2nc3ccccc3n2S(=O)(=O)c2ccc(Br)cc2)cc1` returned a solubility (kinetic) of 0.131 µg/mL (≈ 0.271 µM).

The compound `CN(C)C(=O)c1ccc(-c2cc[nH]c(=O)c2N)cc1` yielded a solubility (kinetic) of over 38 µg/mL.

Consider `COc1cccc(-c2nc3cc(NC(=O)c4ccc(C)c([N+](=O)[O-])c4)ccc3o2)c1`, for which the solubility (kinetic) was under 1 µg/mL.

The compound `CC(=O)c1c(C)[nH]c(C(=O)Nc2cccc(S(=O)(=O)Nc3cccc(C#N)c3)c2)c1C` came in with a solubility (kinetic) of 21 µg/mL (≈ 48.2 µM).

On to `CC(C)NC(=O)c1nc(-c2ccc(Cl)nc2)c2ccccn12`, for which the solubility (kinetic) was 17.2 µg/mL (≈ 54.6 µM).

Turning to `O=C([C@H](Cc1ccc(O[S+](=O)([O-])c2cccc3cnccc23)cc1)N[S+](=O)([O-])c1cccc2cnccc12)N1CCN(Cc2ccccc2)CC1`, the solubility (kinetic) is under 1 µg/mL.

`Cc1ccc(S(=O)(=O)Nc2cnccc2C(=O)Nc2ccc(S(=O)(=O)Nc3nccs3)cc2)cc1` returned a kinetic solubility of over 63 µg/mL.

Consider `COc1ccc(-n2cnc3cc(C(=O)N4CCCCC4)ccc32)cc1`, for which the solubility (kinetic) was over 50 µg/mL.

On to `CC(C)COc1ccc(-c2csc(N3CCC(C(N)=O)CC3)n2)cc1`, for which the kinetic solubility amounted to 2.68 µg/mL (≈ 7.45 µM).

`Cc1cc(Br)ccc1NC(=O)C(NS(=O)(=O)c1cccs1)c1ccccc1` (stereo unspecified) registered a kinetic solubility of under 1 µg/mL.

`COc1ccnc(NC(=S)N2CCN(c3ccccc3C(F)(F)F)CC2)c1` returned a kinetic solubility of 7 µg/mL (≈ 17.7 µM).
